Laboratory results taken from patent US11291672B2, “Betamethasone oral spray formulation and method of use to treat ataxia” (GRACE THERAPEUTICS LLC, priority 2016, dated 2022).

Assays:
[1] = Solubility in purified water; settings: vortex 5 minutes
Excerpt: Respective salt and base forms of betamethasone and dexamethasone were weighed and transferred in the glass test tube.

[2] = cited from earlier work
[3] = test system: ataxia symptoms in children with AT; settings: cited from earlier work
[4] = test system: neurological symptoms in ataxia telangiectasia; settings: 0.1 mg/kg/day, cited from earlier work
[5] = comparison among glucocorticoids; cited from earlier work

C[C@H]1CC2C3CCC4=CC(=O)C=C[C@]4(C)[C@@]3(F)[C@@H](O)C[C@]2(C)[C@@]1(O)C(=O)COP(=O)(O)O (stereo partly drawn) [Betamethasone disodium phosphate, 9-Fluoro-11β,17,21-trihydroxy-16β-methylpregna-1,4-diene-3,20-dione 21-(disodium phosphate)]
Solubility in purified water ([1]; Concentration 0.25 mg/0.14 ml): Soluble | Solubility in purified water ([1]; Concentration 0.50 mg/0.14 ml): Soluble | Solubility in purified water ([1]; Concentration 1.00 mg/0.14 ml): Soluble | Solubility in purified water ([1]; Concentration 1.50 mg/0.14 ml): Soluble | Solubility in purified water ([1]; Concentration 2.00 mg/0.14 ml): Soluble | Solubility in purified water ([1]; Concentration 4.00 mg/0.14 ml): Soluble | Solubility in purified water ([1]; Concentration 8.00 mg/0.14 ml): Soluble | solubility (in words) [2]: soluble | stability in aqueous solution ([2]; strongly influenced by storage temperature): very low

C[C@@H]1C[C@H]2[C@@H]3CCC4=CC(=O)C=C[C@]4(C)[C@@]3(F)[C@@H](O)C[C@]2(C)[C@@]1(O)C(=O)COP(=O)([O-])[O-].[Na+].[Na+] [Dexamethasone disodium phosphate]
Solubility in purified water ([1]; Concentration 1.00 mg/0.14 ml): Soluble | Solubility in purified water ([1]; Concentration 2.00 mg/0.14 ml): Soluble | Solubility in purified water ([1]; Concentration 4.00 mg/0.14 ml): Soluble | Solubility in purified water ([1]; Concentration 8.00 mg/0.14 ml): Soluble

C[C@H]1C[C@H]2[C@@H]3CCC4=CC(=O)C=C[C@]4(C)[C@@]3(F)[C@@H](O)C[C@]2(C)[C@@]1(O)C(=O)CO [betamethasone]
Solubility in purified water ([1]; Concentration 0.25 mg/0.14 ml): Not Soluble | patients with moon face ([3]; 13 children): 8 patients | patients with small increases in body weight ([3]; 13 children): 12 patients | adverse events in the trial ([3]; in vivo): minimal | change in phenotypic appearance (adverse effect) ([4]; 4 weeks): moon face | body weight at 4 weeks ([4]; from 15.5 kg): 19.0 kg

C[C@@H]1C[C@H]2[C@@H]3CCC4=CC(=O)C=C[C@]4(C)[C@@]3(F)[C@@H](O)C[C@]2(C)[C@@]1(O)C(=O)CO [dexamethasone]
Solubility in purified water ([1]; Concentration 0.25 mg/0.14 ml): Not Soluble

C[C@]12CCC(=O)C=C1CC[C@@H]1[C@@H]2[C@@H](O)C[C@@]2(C)[C@H]1CC[C@]2(O)C(=O)CO [hydrocortisone]
equivalent mg dosage [5]: 20 mg

C[C@]12C=CC(=O)C=C1CC[C@@H]1[C@@H]2[C@@H](O)C[C@@]2(C)[C@H]1CC[C@]2(O)C(=O)CO [prednisolone]
equivalent mg dosage [5]: 5 mg

C[C@]12C=CC(=O)C=C1CC[C@H]1[C@@H]3C[C@@H](O)[C@](O)(C(=O)CO)[C@@]3(C)C[C@H](O)[C@@]12F [triamcinolone]
equivalent mg dosage [5]: 4 mg
